From patent US20230023559A1, “ARYLMETHYLENE HETEROCYCLIC COMPOUNDS AS KV1.3 POTASSIUM SHAKER CHANNEL BLOCKERS” (D. E. Shaw Research, LLC, priority 2019, published 2023) come the findings set out here.

A value given as a limit tells only on which side of the number the result lay.

The target of one assay is T1, Kv1.3 potassium channel (Homo sapiens, UniProt P22001).
T1 construct: expressed in transfected cells
Nature of the assay: Kv1.3 potassium channel blocker activity, automated whole-cell patch clamp (Patchliner). Format: cell-based. The note with it: CHO-K1 cells stably expressing Kv1.3; whole cell current inhibition; read-out: Kv1.3_IC50. Summed up:
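Peak-current block was recorded on stable Kv1.3 CHO-K1 cells by automated patch clamp, stepping from a −90 mV holding potential to +40 mV for 100 ms at 0.1 Hz with 10 s breaks between trains. Online P/4 leak subtraction, 10 kHz sampling; compound exposure under 10 s per train.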

The next assay addresses hERG channel (Homo sapiens, UniProt Q12809). Nature of the assay: hERG electrophysiology, automated whole-cell patch clamp (Patchliner).

Chain of hERG channel (Q12809 whole entry): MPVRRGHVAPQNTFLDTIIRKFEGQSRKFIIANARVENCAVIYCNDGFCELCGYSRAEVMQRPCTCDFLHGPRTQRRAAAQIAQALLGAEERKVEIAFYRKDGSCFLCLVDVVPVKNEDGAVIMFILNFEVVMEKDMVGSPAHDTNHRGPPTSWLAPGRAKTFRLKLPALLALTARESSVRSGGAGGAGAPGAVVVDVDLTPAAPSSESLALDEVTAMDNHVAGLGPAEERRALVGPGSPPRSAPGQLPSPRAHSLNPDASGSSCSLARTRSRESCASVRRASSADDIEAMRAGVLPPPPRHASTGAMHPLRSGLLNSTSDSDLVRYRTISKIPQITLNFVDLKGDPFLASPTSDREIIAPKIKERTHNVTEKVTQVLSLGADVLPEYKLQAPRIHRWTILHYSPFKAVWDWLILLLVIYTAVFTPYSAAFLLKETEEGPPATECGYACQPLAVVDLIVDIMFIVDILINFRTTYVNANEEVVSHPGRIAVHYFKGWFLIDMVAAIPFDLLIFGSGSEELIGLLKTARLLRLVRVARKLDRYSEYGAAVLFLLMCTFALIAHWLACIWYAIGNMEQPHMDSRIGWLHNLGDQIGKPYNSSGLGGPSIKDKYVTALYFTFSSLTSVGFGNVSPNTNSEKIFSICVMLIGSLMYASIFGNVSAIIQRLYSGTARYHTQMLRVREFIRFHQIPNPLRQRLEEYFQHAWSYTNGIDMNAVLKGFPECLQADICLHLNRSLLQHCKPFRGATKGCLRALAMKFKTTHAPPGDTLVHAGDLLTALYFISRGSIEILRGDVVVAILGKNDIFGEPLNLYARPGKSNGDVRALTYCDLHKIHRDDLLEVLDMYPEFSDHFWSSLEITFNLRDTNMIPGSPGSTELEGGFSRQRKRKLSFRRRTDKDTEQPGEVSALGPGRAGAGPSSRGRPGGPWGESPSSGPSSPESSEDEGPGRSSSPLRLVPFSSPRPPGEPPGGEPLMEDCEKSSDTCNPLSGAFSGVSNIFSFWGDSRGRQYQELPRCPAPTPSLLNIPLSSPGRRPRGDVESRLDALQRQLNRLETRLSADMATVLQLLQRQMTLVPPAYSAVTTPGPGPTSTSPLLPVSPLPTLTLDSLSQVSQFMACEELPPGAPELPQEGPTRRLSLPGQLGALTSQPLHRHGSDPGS
T1 sequence (P22001 whole entry): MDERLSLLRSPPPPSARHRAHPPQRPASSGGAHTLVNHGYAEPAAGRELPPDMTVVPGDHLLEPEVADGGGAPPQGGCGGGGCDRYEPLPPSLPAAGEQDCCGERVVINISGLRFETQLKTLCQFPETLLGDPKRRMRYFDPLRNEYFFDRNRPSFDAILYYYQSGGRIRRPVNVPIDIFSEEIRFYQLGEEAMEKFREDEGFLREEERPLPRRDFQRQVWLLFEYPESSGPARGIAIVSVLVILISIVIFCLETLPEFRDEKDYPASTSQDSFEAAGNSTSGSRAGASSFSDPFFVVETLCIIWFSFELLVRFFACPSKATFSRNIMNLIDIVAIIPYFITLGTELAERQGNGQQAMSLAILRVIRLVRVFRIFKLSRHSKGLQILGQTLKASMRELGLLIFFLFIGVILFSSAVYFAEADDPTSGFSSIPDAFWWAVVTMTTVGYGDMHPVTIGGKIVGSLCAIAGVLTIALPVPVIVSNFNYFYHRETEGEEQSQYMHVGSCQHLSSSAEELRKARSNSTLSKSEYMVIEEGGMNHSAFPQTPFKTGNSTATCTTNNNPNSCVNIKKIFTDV
Experimental for hERG channel: CHO-K1 cells stably expressing hERG were grown in Ham's F-12 Medium with Glutamine containing 10% heat-inactivated FBS, 1% Penicillin/Streptomycin, Hygromycin (100 μg/ml) and G418 (100 μg/ml). Cells were grown in culture flasks at 37° C. in a 5% CO2-humidified incubator.
The cells were bathed in an extracellular solution containing 140 mM NaCl, 4 mM KCl, 2 mM CaCl2), 1 mM MgCl2, 5 mM Glucose, 10 mM HEPES; pH adjusted to 7.4 with NaOH; 295-305 mOsm. The internal solution contained 50 mM KCl, 10 mM NaCl, 60 mM KF, 20 mM EGTA, 10 mM HEPES; pH adjusted to 7.2 with KOH; 285 mOsm. All compounds were dissolved in DMSO at 30 mM. Compound stock solutions were freshly diluted with external solution to concentrations of 30 nM, 100 nM, 300 nM, 1 μM, 3 μM, 10 μM, 30 μM and 100 μM. The highest content of DMSO (0.3%) was present in 100 μM.
The voltage protocol (see Table B) was designed to simulate voltage changes during a cardiac action potential with a 300 ms depolarization to +20 mV (analogous to the plateau phase of the cardiac action potential), a repolarization for 300 ms to −50 mV (inducing a tail current) and a final step to the holding potential of −80 mV. The pulse frequency was 0.3 Hz. Control (compound-free) and compound pulse trains for each compound concentration applied contained 70 pulses.
Whole cell current recordings and compound application were enabled by means of an automated patch clamp platform Patchliner (Nanion). EPC 10 patch clamp amplifier (HEKA) along with Patchmaster software (HEKA Elektronik Dr. Schulze GmbH) was used for data acquisition. Data were sampled at 10 kHz without filtering. Increasing compound concentrations were applied consecutively to the same cell without washouts in between.
AUC and PEAK values were obtained with Patchmaster (HEKA Elektronik Dr. Schulze GmbH). To determine IC50 the last single pulse in the pulse train corresponding to a given compound concentration was used. Obtained AUC and PEAK values in the presence of compound were normalized to control values in the absence of compound. Using Origin (OridinLab), IC50 was derived from data fit to Hill equation: Icompound/Icontrol=(100−A)/(1+([compound]/IC50)nH)+A, where IC50 is the concentration at which current inhibition is half-maximal, [compound] is the applied compound concentration, A is the fraction of current that is not blocked and nH is the Hill coefficient.

For the compound `N[C@@H](c1cc(Cl)c(Cl)cc1O)C1CCN(C(=O)C(CO)CO)CC1` [Compound 303, 1-[4-[(R)-amino(4,5-dichloro-2-hydroxyphenyl)methyl]piperidin-1-yl]-3-hydroxy-2-(hydroxymethyl) propan-1-one trifluoroacetic acid], the IC50 on Kv1.3 potassium channel was below 500 nM; at hERG channel, above 30 µM.

As to `O=C([C@@H]1CCNC1)N1CCC([C@H](O)c2cc(Cl)c(Cl)cc2O)CC1` (single isomer, unassigned) [Compound 115], the IC50 on Kv1.3 potassium channel is below 500 nM; against hERG channel, above 30 µM.

Consider `N[C@@H](c1cc(Cl)c(Cl)cc1O)C1CCN(C(=O)C2CNC2)CC1` [Compound 83, 2-[(R)-amino[1-(azetidine-3-carbonyl)piperidin-4-yl]methyl]-4,5-dichlorophenol Trifluoroacetic Acid], for which the IC50 was below 500 nM on Kv1.3 potassium channel and above 30 µM at hERG channel.

Turning to `N[C@@H](c1cc(Cl)c(Cl)cc1O)C1CCN(C(=O)c2cn[nH]n2)CC1` [Compound 157, 2-[(R)-amino[1-(1H-1,2,3-triazole-4-carbonyl)piperidin-4-yl]methyl]-4,5-dichlorophenol trifluoroacetic acid], the IC50 on Kv1.3 potassium channel is below 500 nM; against hERG channel it was above 30 µM.

`N[C@@H](c1cc(Cl)c(Cl)cc1O)C1CCN(C(=O)C2CC(F)(F)C2)CC1` [Compound 161, 2-[(R)-amino[1-(3,3-difluorocyclo-butanecarbonyl)piperidin-4-yl]methyl]-4,5-dichlorophenol]: the figures for the IC50 on Kv1.3 potassium channel and against hERG channel were below 10000 nM and below 30 µM, respectively.

On to `N[C@@H](c1cc(Cl)c(Cl)cc1O)C1CCN(C(=O)C2CCC(=O)NC2)CC1` (stereo partly drawn) [Compound 299, 5-[4-[(R)-amino(4,5-dichloro-2-hydroxyphenyl)methyl]piperidine-1-carbonyl]piperidin-2-one Trifluoroacetic Acid], for which the values for the IC50 on Kv1.3 potassium channel and on hERG channel were below 500 nM and above 30 µM, respectively.

Regarding `N[C@@H](c1cc(Cl)c(Cl)cc1O)C1CCN(C(=O)c2cnoc2)CC1` [Compound 205, 2-[(R)-amino[1-(1,2-oxazole-4-carbonyl)piperidin-4-yl]methyl]-4,5-dichlorophenol], the IC50 on Kv1.3 potassium channel is below 500 nM; at hERG channel, above 30 µM.

Consider `CC(C)(O)CN1CCC(C(N)c2cc(Cl)c(Cl)cc2O)CC1` (stereo not drawn) [Compound 56, 2-[amino[1-(2-hydroxy-2-methylpropyl)piperidin-4-yl]methyl]-4,5-dichlorophenol Trifluoroacetic Acid], for which the values for the IC50 on Kv1.3 potassium channel and against hERG channel were below 10000 nM and below 30 µM, respectively.

`CN1C(=O)CC[C@H]1C(=O)N1CCC([C@@H](N)c2cc(Cl)c(Cl)cc2O)CC1` [Compound 306, (S)-5-(4-((R)-amino(4,5-dichloro-2-hydroxyphenyl)methyl)piperidine-1-carbonyl)-1-methylpyrrolidin-2-one trifluoroacetic acid]: the IC50 at Kv1.3 potassium channel is below 500 nM; on hERG channel, above 30 µM.

On to `Cc1cc(O)c([C@H](N)C2CCN(C(=O)c3c[nH]c(=O)c(Cl)c3)CC2)cc1Cl` [Compound 241, 5-[4-[(R)-amino (5-chloro-2-hydroxy-4-methylphenyl)methyl]piperidine-1-carbonyl]-3-chloro-1H-pyridin-2-one trifluoro-acetic acid], for which the IC50 was below 500 nM on Kv1.3 potassium channel and above 30 µM at hERG channel.

`NC(c1cc(Cl)c(Cl)cc1O)C1CCN(C(=O)[C@@H]2CCNC2)CC1` (stereo partly drawn) [Compound 66, (4-(amino(4,5-dichloro-2-hydroxyphenyl)methyl)piperidin-1-yl)((R)-pyrrolidin-3-yl)methanone Trifluoroacetic Acid]: the IC50 on Kv1.3 potassium channel was below 500 nM; on hERG channel, above 30 µM.

Take `N[C@@H](c1cc(Cl)c(Cl)cc1O)C1CCN(C(=O)c2cccc(=O)[nH]2)CC1` [Compound 178, (R)-6-(4-(amino(4,5-dichloro-2-hydroxyphenyl)methyl)piperidine-1-carbonyl) pyridin-2(1H)-one formic acid]: the half-inhibitory concentration (IC50) at Kv1.3 potassium channel is below 500 nM; against hERG channel, above 30 µM.

With `N[C@@H](c1cc(Cl)c(Cl)cc1O)C1CCN(C(=O)c2c[nH]c3ccccc23)CC1` [Compound 204, (R)-(4-(amino(4,5-dichloro-2-hydroxyphenyl)methyl)piperidin-1-yl)(1H-indol-3-yl)methanone trifluoroacetic acid], the half-inhibitory concentration (IC50) at Kv1.3 potassium channel is below 10000 nM; against hERG channel it was below 30 µM.

As to `N[C@@H](c1cc(Cl)c(Cl)cc1O)C1CCN(C(=O)[C@H]2CNC(=O)CO2)CC1` (single isomer, unassigned; isomer 2) [Compound 276], the IC50 on Kv1.3 potassium channel is below 500 nM; on hERG channel it was above 30 µM.

`C[C@@H](N)C(=O)N1CCC(C(N)c2cc(Cl)c(Cl)cc2O)CC1` (stereo partly drawn) [Compound 54, (2R)-2-amino-1-(4-(amino(4,5-dichloro-2-hydroxyphenyl)methyl)piperidin-1-yl)propan-1-one Trifluoroacetic Acid]: the 50% inhibitory concentration (IC50) on Kv1.3 potassium channel is below 500 nM; against hERG channel, above 30 µM.

Consider `N[C@@H](c1cc(Cl)c(Cl)cc1O)C1CCN(C(=O)[C@H]2C[C@@H](O)C2)CC1` [Compound 138, 2-[(R)-amino([1-[(1S,3S)-3-hydroxycyclo-butanecarbonyl]piperidin-4-yl])methyl]-4,5-dichlorophenol trifluoroacetic acid], for which the values for the half-maximal inhibitory concentration (IC50) at Kv1.3 potassium channel and at hERG channel were below 10000 nM and above 30 µM, respectively.

On to `Cc1cc(O)c([C@H](N)C2CCN(C(=O)[C@H](O)CO)CC2)cc1Cl` [Compound 190, (2R)-1-[4-[(R)-amino(5-chloro-2-hydroxy-4-methylphenyl)methyl]piperidin-1-yl]-2,3-dihydroxypropan-1-one Trifluoroacetic Acid], for which the half-maximal inhibitory concentration (IC50) was below 500 nM at Kv1.3 potassium channel and above 30 µM against hERG channel.

For the compound `N[C@@H](c1cc(Cl)c(Cl)cc1O)C1CCN(C(=O)c2cn[nH]c2)CC1` [Compound 131, 2-[(R)-amino[1-(1H-pyrazole-4-carbonyl)piperidin-4-yl]methyl]-4,5-dichlorophenol trifluoroacetic acid], the half-inhibitory concentration (IC50) at Kv1.3 potassium channel is below 500 nM; on hERG channel, above 30 µM.

Take `N[C@@H](c1cc(Cl)c(Cl)cc1O)C1CCN(C(=O)[C@H]2CCC(=O)N2)CC1` [Compound 165, (5R)-5-[4-[(R)-amino(4,5-dichloro-2-hydroxyphenyl)methyl]piperidine-1-carbonyl] pyrrolidin-2-one trifluoroacetic acid]: the IC50 was below 500 nM on Kv1.3 potassium channel and above 30 µM on hERG channel.

As for `Oc1cc(Cl)c(Cl)cc1[C@H](O)C1CCNCC1` (single isomer, unassigned) [Compound 7], the 50% inhibitory concentration (IC50) on Kv1.3 potassium channel was below 10000 nM; at hERG channel, above 30 µM.

For the compound `N[C@H](CO)C(=O)N1CCC([C@@H](N)c2cc(Cl)c(Cl)cc2O)CC1` [Compound 171, (2R)-2-amino-1-[4-[(R)-amino(4,5-dichloro-2-hydroxyphenyl)methyl]piperidin-1-yl]-3-hydroxypropan-1-one], the IC50 on Kv1.3 potassium channel is below 500 nM; against hERG channel, above 30 µM.

Take `NC(c1c(O)ccc2ccccc12)C1CCNCC1` (stereo not drawn) [Compound 34, 1-(amino(piperidin-4-yl)methyl)naphthalen-2-ol Trifluoroacetic Acid]: the values for the 50% inhibitory concentration (IC50) at Kv1.3 potassium channel and against hERG channel were below 30000 nM and above 30 µM, respectively.

Regarding `CC(=O)N1CCC([C@H](N)c2cc(Cl)c(Cl)cc2O)CC1` (single isomer, unassigned) [Compound 19], the values for the half-inhibitory concentration (IC50) at Kv1.3 potassium channel and on hERG channel were below 10000 nM and below 30 µM, respectively.

For `N[C@@H](c1cc(Cl)c(Cl)cc1O)C1CCN(c2ccc(O)nc2)CC1` [Compound 302, (R)-5-(4-(amino(4,5-dichloro-2-hydroxyphenyl)methyl)piperidin-1-yl)pyridin-2-ol], the IC50 on Kv1.3 potassium channel was below 10000 nM; at hERG channel, above 30 µM.

With `Cc1cc(O)c([C@H](N)C2CCN(C(=O)c3c[nH]c(=O)cc3Cl)CC2)cc1Cl` [Compound 245, 5-[4-[(R)-amino (5-chloro-2-hydroxy-4-methylphenyl)methyl]piperidine-1-carbonyl]-4-chloro-1H-pyridin-2-one trifluoroacetic acid], the 50% inhibitory concentration (IC50) at Kv1.3 potassium channel is below 500 nM; against hERG channel, above 30 µM.

Regarding `N[C@@H](c1cc(Cl)c(Cl)cc1O)C1CCN(C(=O)[C@H]2C[C@H](O)C2)CC1` [Compound 139, 2-[(R)-amino([1-[(1R,3R)-3-hydroxycyclo-butanecarbonyl]piperidin-4-yl])methyl]-4,5-dichlorophenol trifluoroacetic acid], the IC50 at Kv1.3 potassium channel is below 500 nM; on hERG channel, above 30 µM.

On to `C[C@@](O)(CO)C(=O)N1CCC([C@@H](N)c2cc(Cl)c(Cl)cc2O)CC1` (single isomer, unassigned; isomer 1) [Compound 217], for which the IC50 was below 10000 nM on Kv1.3 potassium channel and above 30 µM against hERG channel.

With `Cc1cc(O)c([C@H](N)C2CCN(C(=O)c3ccc4c(c3)CNC4=O)CC2)cc1Cl` [Compound 324, 5-[4-[(R)-amino(5-chloro-2-hydroxy-4-methylphenyl)methyl]piperidine-1-carbonyl]-2,3-dihydroisoindol-1-one trifluoroacetic acid], the half-inhibitory concentration (IC50) is below 500 nM on Kv1.3 potassium channel and above 30 µM against hERG channel.

For the compound `N[C@@H](c1cc(Cl)c(Cl)cc1O)C1CCN(C(=O)[C@H]2CNCCO2)CC1` [Compound 97, (4-((R)-amino(4,5-dichloro-2-hydroxyphenyl)methyl)piperidin-1-yl)((R)-morpholin-2-yl)methanone trifluoroacetic acid], the concentration for half-maximal inhibition (IC50) on Kv1.3 potassium channel is below 500 nM; at hERG channel it was above 30 µM.

In the case of `Cc1cc(O)c([C@H](N)C2CCN(C(=O)c3ccc(CO)nc3)CC2)cc1Cl` [Compound 248, 2-[(R)-amino([1-[6-(hydroxymethyl)pyridine-3-carbonyl]piperidin-4-yl])methyl]-4-chloro-5-methylphenol], the IC50 was below 500 nM at Kv1.3 potassium channel and above 30 µM on hERG channel.
